PMC12557367, ““Precision on Two Wheels”–Structural Refinement of ^64Cu- and ^68Ga-Labeled Bicyclic Peptides Targeting Nectin‑4 for Improved Tumor Imaging: From Preclinical Development to First-in-Human Application” (Journal of Medicinal Chemistry, 2025)
Numbered stars: 1 amine (or outer) side, 2 acyl side, 3 side chain; on linkers, the order of the positions; unused ones are H or OH. Bridge positions count the residues as written; N and C are the ends. Square brackets hold non-standard residues; d marks the D form. Peptide text beside a SMILES is read from it. * marks the point of attachment. DOTA = O=C(O)CN1CCN(CC(=O)O)CCN(CC(=O)*)CCN(CC(=O)O)CC1; TATA = O=C(CC[*:1])N1CN(C(=O)CC[*:2])CN(C(=O)CC[*:3])C1; 2Nal = N[C@@H](Cc1ccc2ccccc2c1)C(=O)O; Hyp = O=C(O)[C@@H]1C[C@@H](O)CN1

Assays:
[1] = n-Octanol/PBS distribution coefficient (logD 7.4); assay type: physicochemical; settings: pH 7.4, logD 7.4
Method: The determination of logD 7.4 was performed in triplicate. A sample of the ^64Cu/^68Ga-labeled compound containing ≈1 MBq in a volume of 1 μL was added to a 1.5 mL Eppendorf tube containing 400 μL of PBS (pH 7.4) and 400 μL of n-Octanol (the phases were presaturated with each other). The tube was vortexed vigorously for 1 min and then centrifuged at 16,100g for 4 min to separate the phases. For sampling from the aqueous phase, the pipette tip was discharged while passing through the octanol layer. Then, the sample was taken within the aqueous phase. Any residual liquid was carefully removed by moving the tip along the inner wall of an Eppendorf tube. The radioactivity in a defined volume of each layer was measured (ISOMED 2100). The distribution coefficient was expressed as the logarithm of the ratio of counts per minute (cpm) measured in the n-Octanol phase to the cpm measured in the PBS phase.

[2] = biological target: T1, immobilized human nectin-4 (Homo sapiens, UniProt Q96NY8); experiment: SPR analysis of binding kinetics; settings: ±SEM
T1 construct: close to the value determined for the complete extracellular domain of nectin-4 (0.94 nM); purchased R&D Systems 2659-N4
T1 sequence (Q96NY8 32-349 limits assumed): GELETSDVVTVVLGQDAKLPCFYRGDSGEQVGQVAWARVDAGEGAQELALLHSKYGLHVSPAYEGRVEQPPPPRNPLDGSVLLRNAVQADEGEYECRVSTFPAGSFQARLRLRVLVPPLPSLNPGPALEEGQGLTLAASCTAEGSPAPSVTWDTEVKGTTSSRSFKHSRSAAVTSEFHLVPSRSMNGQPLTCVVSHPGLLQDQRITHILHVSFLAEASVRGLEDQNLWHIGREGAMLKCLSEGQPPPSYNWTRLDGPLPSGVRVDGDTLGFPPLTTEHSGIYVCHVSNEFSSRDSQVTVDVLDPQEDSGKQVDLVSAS
Method: For this purpose, recombinant human nectin-4 was covalently immobilized on a CM5 sensor chip by EDC/NHS coupling. For analyses, the buffer composition (HBS-P+, pH 7.4) was similar to that of the FA assay; however, DMSO was completely omitted (1% DMSO for the FA assay).
The SPR analyses were carried out on a Biacore T200 (GE Healthcare, Chicago, IL, USA) at 25 °C using CM5 sensor chips (Cytiva) and HBS-P+ as running buffer (Cytiva) at a flow of 30 μL/min unless otherwise specified and a data collection rate of 10 Hz. All flow cells (FC) were normalized, and functionalization was performed using an amine coupling Kit (Cytiva). […] Binding analyses were performed by a single-cycle kinetic on both FC. Two start-up cycles were performed at the beginning of each experimental set, comprising the injection of bicyclic peptide (50 nM) and analysis on both FC, followed by regeneration. Binding analysis for the bicyclic peptides was performed by consecutive injection of five increasing concentrations (120 s contact time for each concentration), followed by 600 s dissociation time and analysis on both FC. The regeneration was performed by sequential injection of 10 mM NaOAc (pH 5.5) for 60 s, washing the needle using HBS-P+, injection of 10 mM NaOAc (pH 5.5) for 60 s, 600 s waiting, four injections of HBS-P+ (60 s), and a final 600 s waiting for stabilization. Blank runs using only buffer (HBS-P+) instead of the sample were carried out to obtain double-referenced chromatograms. Binding analyses were performed unless otherwise stated in a concentration range between 0.16–100 nM and 1.6–1000 nM (5-fold dilution series) and analyzed in triplicate. The data were analyzed using the Biacore Evaluation software 3.2.1. […] Data were fitted to a 1:1 binding model.

[3] = tested on: HT-1376 cells; experiment: Saturation binding assay on intact cells; assay type: cell-based, human; settings: ^68Ga-labeled ligand, intact HT-1376 cells, ±SD
Method: For the saturation binding assay, total and nonspecific binding were determined as described above using 10 different radioligand concentrations ([…]) prepared by serial 1:1 dilution. Plots of “total binding” = f(radioligand) were analyzed by nonlinear regressions using the model of “one site-total, accounting for ligand depletion” as implemented in GraphPad Prism, and Plots of “nonspecific binding” = f(radioligand) were analyzed by linear regressions.

[4] = biological target: T2, recombinant human nectin-4 (Homo sapiens, UniProt Q96NY8); experiment: FA-based competitive binding assay with probe 1a
T2 construct: close to the value determined for the complete extracellular domain of nectin-4 (0.94 nM); purchased R&D Systems 2659-N4
T2 sequence (Q96NY8 32-349 limits assumed): T1 sequence (Q96NY8 32-349 limits assumed)
Method: For the competitive binding assay, a constant concentration of probe 1a (1 nM) and of nectin-4 (20 nM) was used, and the concentration of the competitors was varied over at least 3 orders of magnitude. […] Analysis of the curves by nonlinear regression according to dose–response inhibition with variable slope, as implemented in GraphPad Prism (see Experimental section), provided the IC50 value for displacing the probe from nectin-4.
All measurements were conducted at 37 °C over 1200 s (interval of 37 s) using a Cytation 5 multimode microplate reader (BioTek Instruments, Software Gen 5) and black 96-well microplates (BRANDplates with F-bottom wells). Experiments were conducted at an excitation wavelength of 540 nm and an emission wavelength of 620 nm. The FA (r) was calculated by Gen 5 software from the measured parallel and perpendicular fluorescence intensities (I ∥ and I ⊥, respectively) according to eq using a G factor of 0.87 (preset value). r=I∥−G×I⊥/I∥+2G×I⊥ 1
All further data analyses were conducted with GraphPad Prism (version 10.4.1, GraphPad Software, San Diego, CA, USA). The assay mixture (100 μL) contained an aqueous solution (99 μL) and DMSO (1%, v/v, 1 μL).
For the competitive binding assay, fixed concentrations of probe 1a (1 nM) and recombinant human nectin-4 (20 nM) and 10 concentrations of nonlabeled peptide (e.g., […] prepared as serial 1:1 dilution) were used (two separate experiments, each performed in duplicate). The corresponding stock solutions of 1a (2.5 nM) and nectin-4 (50 nM) were prepared in HEPES buffer, while the stock solutions of the nonlabeled peptides were prepared in 5% DMSO/HEPES buffer. nectin-4 (40 μL) and 1a (40 μL) were added to the wells, and the competition was started by the addition of the nonlabeled peptides (20 μL). The FA values were averaged over the time period of 1200 s, and plots of FA = f([peptide]) were analyzed by nonlinear regression according to the model “[inhibitor] vs. response – Variable slope (four parameters)” as implemented in GraphPad Prism. […] Therefore, the lower FA plateau was constrained to the FA value of probe 1a in the absence of nectin-4 and the competitor, which was recorded in each experiment.

[5] = Oxidation stability in H2O2 (radio-HPLC)
Method: To avoid a too rapid degradation of radiolabeled peptides, a low H2O2 concentration of 0.0012% was chosen. […] In this context, there are three further thioether functionalities in each peptide due to the cyclization of the Cys residues with TATA. In Figure , the curves for the time-dependent degradation of the intact radioligands are depicted, from which the respective half-lives were calculated.
The stability toward oxidizing conditions was assessed with H2O2. For this purpose, the radioligands (2 nmol, 48 μL of labeling mixture) were treated with H2O2 (2 μL of 0.03%, final concentration of 0.0012%) at ambient temperature. At distinct time points (3, 5, and 7 h), an aliquot of 2 μL was withdrawn and diluted with 48 μL of a mixture named “Supersol,” which consists of 20% ethanol, 0.5% Triton X-100, 5 mM EDTA, 0.5 mM o-phenanthroline, and 0.1% saponin. […] The resulting solutions were analyzed by radio-HPLC (same system as that used for analyzing the ^64Cu-labelings).

[6] = Small animal PET/CT imaging; set-up: species or system mice; settings: mouse, in vivo
Method: All animal experiments were performed following the protocols evaluated and approved by the Landesdirektion Sachsen, Referat 25 – Veterinärwesen, Lebensmittelüberwachung and Pharmazie (09105 Chemnitz, Germany, ethics approval number: 25-5131/562/52). HT-1376- and 5637-derived tumor xenograft models were established in NMRI nude mice (Rj: NMRI-Foxn1nu/nu, Charles River Laboratories, Sulzfeld, Germany) by subcutaneous injection of 5 × 10^6 cells in 100 μL of PBS containing 50% (v/v) Matrigel (Corning Life Sciences, Amsterdam, The Netherlands).
When the tumor volume reached 200 mm^3, PET experiments with radiotracers were performed. Radiolabeling of the ligands was performed as described previously with an apparent molar activity of 25 MBq/nmol. The radioligand stock solution (pH 6.5 – 7.5) was diluted in 0.9% NaCl, and 200 μL containing ∼9 MBq ([…]) was injected per mouse intravenously into a lateral tail vein. For blocking of target-specific radioligand binding, 75 nmol of blocking substance (1d) was administered simultaneously with the radioligand. Coincidences were recorded continuously in a 2 h PET-scan starting with the injection. Additionally, a CT scan was performed for anatomical referencing and attenuation correction. PET/CT imaging, reconstruction, and tissue delineation were carried out as described previously.

Compound	logD [1]	kon ([2]; HBS-P+ pH 7.4, 25 °C, read-out: k on (SPR, *10^6 M^–1 s^–1))	koff ([2]; pH 7.4, HBS-P+ pH 7.4, 25 °C, read-out: k off (SPR, *10^–3 s^–1))	Kd ([3]; 60 min, PBS wash, apparent)	B max (fmol/mg) [3]	factor less potent than DOTA conjugate 1f ([4]; FA K d ratio)	fold lower binding affinity compared to 1e ([4]; FA K d ratio)	Hill coefficient n ([4]; competitive binding curve, variable slope)	half-life [5]	half-life ([6]; Blood half life fast [min])	half-life ([6]; Blood half life slow [min])
CSCC[C@@H]1NC(=O)[C@@H]2CSCCC(=O)N3CN(CN(C3)C(=O)CCSC[C@H](NC(=O)CN3CCN(CC(=O)O)CCN(CC(=O)O)CCN(CC(=O)O)CC3)C(=O)N3CCC[C@H]3C(=O)N[C@@H](Cc3ccc4ccccc4c3)C(=O)N[C@H](CC(=O)O)C(=O)N2)C(=O)CCSC[C@@H](C(N)=O)NC(=O)[C@H](Cc2c[nH]c3ccccc23)NC(=O)[C@@H]2C[C@@H](O)CN2C(=O)[C@@H]2CCCN2C(=O)[C@H]([C@@H](C)O)NC(=O)[C@H](CO)NC(=O)[C@H](Cc2c[nH]c3ccccc23)NC(=O)[C@H](CC(=O)O)NC(=O)[C@H](CCCNC(=N)N)NC1=O [8c] ({DOTA}-CP[2Nal][dD]CMRDWSTP[Hyp]WC-NH2; linker 1-5-15 via TATA)	-2.79	20000 M⁻¹ s⁻¹	0.00239 s⁻¹	103 nM	799 (±136) fmol/mg	21 fold	213 fold	1.23	–	–	–
CSCC[C@@H]1NC(=O)[C@@H]2CSCCC(=O)N3CN(CN(C3)C(=O)CCSC[C@H](NC(=O)CC[C@H](C(=O)O)N3CCN(CC(=O)O)CCN(CC(=O)O)CC3)C(=O)N3CCC[C@H]3C(=O)N[C@@H](Cc3cccc4ccccc34)C(=O)N[C@H](CC(=O)O)C(=O)N2)C(=O)CCSC[C@@H](C(N)=O)NC(=O)[C@H](Cc2c[nH]c3ccccc23)NC(=O)[C@@H]2C[C@@H](O)CN2C(=O)[C@@H]2CCCN2C(=O)[C@H]([C@@H](C)O)NC(=O)[C@H](CO)NC(=O)[C@H](Cc2c[nH]c3ccccc23)NC(=O)[C@H](CC(=O)O)NC(=O)[C@H](CCCCNC(=N)N)NC1=O [[^64Cu]Cu-1e, metal not drawn]	-2.74	–	–	–	–	–	–	–	218 min	1.21 ± 0.21 min	32.5 ± 3.08 min
